Columns and labels:
HCT116 MTAP null cells = assay: HCT116 MTAP null cell line proliferation / cell viability (CellTiter-Glo, 6 days); assay type: cell-based; conditions: 144 h; HCT116 MTAP null cells, 6 days treatment, CellTiter-Glo cell viability; read-out: HCT-116 MTAP null IC50
In short: (§1)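 CellTiter-Glo luminescence read after 6 days of compound exposure in parental and MTAP-null HCT116 cells grown in RPMI 1640/10% FBS. Dilution series: 1:3 steps, 8–9 points, top 1 or 10 μM; or 1:2 steps, 22 points, top 10 or 50 μM. IC50 = curve transit through 50% of control.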

HCT116 WT cells = assay: HCT116 WT (parent) cell line proliferation / cell viability (CellTiter-Glo, 6 days); assay type: cell-based; conditions: Homo sapiens, HCT-116, 144 h, 6 days treatment
In short: as §1

IC50 (HCT116 MTAP null cells) | IC50 (HCT116 WT cells) | SMILES
10 nM | 1020 nM | C[C@H]1OCc2c1c(N)nc1cc(F)c(C(=O)N(C)[C@@H]3COc4cc(-c5cnn(C)c5)ccc43)cc21 [Example 217, (3R)-4-amino-7-fluoro-N,3-dimethyl-N-((3S)-6-(1-methyl-1H-pyrazol-4-yl)-2,3-dihydro-1-benzofuran-3-yl)-1,3-dihydrofuro[3,4-c]quinoline-8-carboxamide]
13 nM | 838 nM | CN(C(=O)c1cc2c3c(c(N)nc2cc1C#N)COC3)[C@@H]1COc2cc(C(F)(F)F)ccc21 [Example 218, 4-amino-7-cyano-N-methyl-N-((3S)-6-(trifluoromethyl)-2,3-dihydro-1-benzofuran-3-yl)-1,3-dihydrofuro[3,4-c]quin-oline-8-carboxamide]
105 nM | 2770 nM | CN(C(=O)c1ccc2nc(N)c3c(c2c1)CSC3)[C@@H]1COc2cc(C(F)(F)F)ccc21 [Example 219, 4-amino-N-methyl-N-((3S)-6-(trifluoromethyl)-2,3-dihydro-1-benzofuran-3-yl)-1,3-dihydrothieno[3,4-c]quinoline-8-carboxamide]
18 nM | 432 nM | CN(C(=O)c1ccc2nc(N)c3ccncc3c2c1)[C@@H]1COc2cc(C(F)(F)F)ccc21 [Example 220, 5-amino-N-methyl-N-((3S)-6-(trifluoromethyl)-2,3-dihydro-1-benzofuran-3-yl)-benzo[c][2,6]naphthyridine-9-carboxamide]
590 nM | 4290 nM | CN(C(=O)c1ccc2nc(N)c3ncncc3c2c1)[C@@H]1COc2cc(C(F)(F)F)ccc21 [Example 221, 5-amino-N-methyl-N-((3S)-6-(trifluoromethyl)-2,3-dihydro-1-benzofuran-3-yl)pyrimido-[4,5-c]quinoline-9-carboxamide]
280 nM | 3910 nM | Cc1nccc2c(N)nc3ccc(C(=O)N(C)[C@@H]4COc5cc(C(F)(F)F)ccc54)cc3c12 [Example 222, 5-amino-N,1-dimethyl-N-((3S)-6-(trifluoromethyl)-2,3-dihydro-1-benzofuran-3-yl)benzo[c][2,6]-naphthyridine-9-carboxamide]
23 nM | 437 nM | CN(C(=O)c1cc2c(cn1)nc(N)c1ccncc12)[C@@H]1COc2cc(C(F)(F)F)ccc21 [Example 223, 5-amino-N-methyl-N-((3S)-6-(trifluoromethyl)-2,3-dihydro-1-benzofuran-3-yl)pyrido[4,3-c][1,7]naphthyridine-9-carboxamide]
424 nM | 3600 nM | CN(C(=O)c1cc2c(cn1)nc(N)c1ncncc12)[C@@H]1COc2cc(C(F)(F)F)ccc21 [Example 224, 5-amino-N-methyl-N-((3S)-6-(trifluoromethyl)-2,3-dihydro-1-benzofuran-3-yl)pyrimido-[4,5-c][1,7]naphthyridine-9-carboxamide]
403 nM | 4940 nM | Cc1noc2c1c(N)nc1cc(F)c(C(=O)N(C)[C@@H]3COc4cc(C(F)(F)F)ccc43)cc12 [Example 225, 4-amino-7-fluoro-N,3-dimeth-yl-N-((3S)-6-(trifluoromethyl)-2,3-dihydro-1-benzofuran-3-yl)[1,2]oxazolo[4,5-c]quin-oline-8-carboxamide]
19 nM | 1480 nM | CN(C(=O)c1ccc2nc(N)c3cnn(C)c3c2c1)[C@@H]1COc2cc(C(F)(F)F)ncc21 [Example 227, 4-amino-N,1-dimethyl-N-((3S)-6-(trifluoromethyl)-2,3-dihydrofuro[3,2-c]pyridin-3-yl)-1H-pyrazolo[4,3-c]-quinoline-8-carboxamide]
265 nM | 7740 nM | CCN(C(=O)c1ccc2nc(N)c3cnn(C)c3c2c1)[C@H]1COc2cc(C(F)(F)F)ccc21 [Example 229, 4-amino-N-ethyl-1-methyl-N-((3R)-6-(trifluoromethyl)-2,3-dihydro-1-benzofuran-3-yl)-1H-pyrazolo[4,3-c]quinoline-8-carboxamide]
7 nM | 530 nM | CN(C(=O)c1ccc2nc(N)c3cnn(C)c3c2c1)[C@@H]1COc2cc(OC(F)(F)F)ccc21 [Example 230, 4-amino-N,1-dimethyl-N-((3S)-6-(trifluoromethoxy)-2,3-dihydro-1-benzofuran-3-yl)-1H-pyrazolo[4,3-c]quinoline-8-carboxamide]
215 nM | 2060 nM | CN(C(=O)c1ccc2nc(N)c3cnn(C)c3c2c1)[C@@H]1COc2cc(C(F)(F)F)cc(Cl)c21 [Example 231, 4-amino-N-((3S)-4-chloro-6-(trifluoromethyl)-2,3-dihydro-1-benzofuran-3-yl)-N,1-dimethyl-1H-pyrazolo[4,3-c]-quinoline-8-carboxamide]
222 nM | 2490 nM | CN(C(=O)c1ccc2nc(N)c3cnn(C)c3c2c1)[C@H]1COc2cc(C(F)(F)F)cc(Cl)c21 [Example 232, 4-amino-N-((3R)-4-chloro-6-(trifluoromethyl)-2,3-dihydro-1-benzofuran-3-yl)-N,1-dimethyl-1H-pyrazolo[4,3-c]-quinoline-8-carboxamide]
8 nM | 613 nM | CN(C(=O)c1ccc2nc(N)c3cnn(C)c3c2c1)[C@@H]1COc2cc(Br)ccc21 [Example 234, 4-amino-N-((3S)-6-bromo-2,3-dihydro-1-benzofuran-3-yl)-N,1-dimethyl-1H-pyrazolo[4,3-c]quinoline-8-carboxamide]
219 nM | 10000 nM | CN(C(=O)c1ccc2nc(N)c3cnn(C)c3c2c1)[C@@H]1COc2cc(Br)cnc21 [Example 235, 4-amino-N-((3S)-6-bromo-2,3-dihydrofuro[3,2-b]pyridin-3-yl)-N,1-dimethyl-1H-pyrazolo[4,3-c]quinoline-8-carboxamide]
786 nM | 24200 nM | CN(C(=O)c1ccc2nc(N)c3cnn(C)c3c2c1)[C@H]1COc2cc(Br)cnc21 [Example 236, 4-amino-N-((3R)-6-bromo-2,3-dihydrofuro[3,2-b]pyridin-3-yl)-N,1-dimethyl-1H-pyrazolo[4,3-c]quinoline-8-carboxamide]
12 nM | 192 nM | CN(C(=O)c1cc2c(cn1)nc(N)c1cnn(C)c12)[C@@H]1COc2cc(C(F)(F)F)ccc21 [Example 237, 4-amino-N,1-dimethyl-N-((3S)-6-(trifluoromethyl)-2,3-dihydro-1-benzofuran-3-yl)-1H-pyr-azolo[4,3-c][1,7]naphthyridine-8-carboxamide]
10 nM | 168 nM | CN(C(=O)c1cc2c(cn1)nc(N)c1cnn(C)c12)[C@@H]1COc2cc(OC(F)(F)F)ccc21 [Example 239, 4-amino-N,1-dimethyl-N-((3S)-6-(trifluoromethoxy)-2,3-dihydro-1-benzofuran-3-yl)-1H-pyrazolo[4,3-c][1,7]-naphthyridine-8-carboxamide]
13 nM | 250 nM | CN(C(=O)c1cc2c(cn1)nc(N)c1cnn(C)c12)[C@@H]1COc2cc(S(F)(F)(F)(F)F)ccc21 [Example 240, 4-amino-N,1-dimethyl-N-((3S)-6-(pentafluoro-lambda~6~-sulfanyl)-2,3-dihydro-1-benzofuran-3-yl)-1H-pyrazolo[4,3-c][1,7]naph-thyridine-8-carboxamide]
9 nM | 388 nM | CN(C(=O)c1cc2c(cn1)nc(N)c1cnn(C)c12)[C@@H]1COc2cc(-c3cnn(C(F)(F)F)c3)ccc21 [Example 241, 4-amino-N,1-dimethyl-N-((3S)-6-(1-(trifluoromethyl)-1H-pyrazol-4-yl)-2,3-dihydro-1-benzofuran-3-yl)-1H-pyr-azolo[4,3-c][1,7]naphthyridine-8-carboxamide]
9 nM | 82 nM | CCN(C(=O)c1cc2c(cc1F)nc(N)c1cnn(C)c12)[C@@H]1COc2cc(C(F)(F)F)ccc21 [Example 243, 4-amino-N-ethyl-7-fluoro-1-methyl-N-((3S)-6-(trifluoro-methyl)-2,3-dihydro-1-benzo-furan-3-yl)-1H-pyrazolo[4,3-c]-quinoline-8-carboxamide]
182 nM | 7440 nM | CCN(C(=O)c1cc2c(cc1F)nc(N)c1cnn(C)c12)[C@H]1COc2cc(C(F)(F)F)ccc21 [Example 244, 4-amino-N-ethyl-7-fluoro-1-methyl-N-((3R)-6-(trifluoro-methyl)-2,3-dihydro-1-benzo-furan-3-yl)-1H-pyrazolo[4,3-c]quinoline-8-carboxamide]
5 nM | 304 nM | CN(C(=O)c1cc2c(cc1F)nc(N)c1cnn(C)c12)[C@@H]1COc2cc(-c3cnn(C(F)(F)F)c3)ccc21 [Example 247, 4-amino-7-fluoro-N,1-dimethyl-N-((3S)-6-(1-(trifluoromethyl)-1H-pyrazol-4-yl)-2,3-dihydro-1-benzofuran-3-yl)-1H-pyrazolo[4,3-c]quinoline-8-carboxamide]
3 nM | 66 nM | CN(C(=O)c1cc2c(cc1Cl)nc(N)c1cnn(C)c12)[C@@H]1COc2cc(-c3cnn(C(F)(F)F)c3)ccc21 [Example 249, 4-amino-7-chloro-N,1-dimethyl-N-((3S)-6-(1-(trifluoromethyl)-1H-pyrazol-4-yl)-2,3-dihydro-1-benzo-furan-3-yl)-1H-pyrazolo[4,3-c]quinoline-8-carboxamide]
2 nM | 46 nM | Cc1cc2nc(N)c3cnn(C)c3c2cc1C(=O)N(C)[C@@H]1COc2cc(C(F)(F)F)ccc21 [Example 250, 4-amino-N,1,7-trimethyl-N-((3S)-6-(trifluoromethyl)-2,3-dihydro-1-benzofuran-3-yl)-1H-pyrazolo[4,3-c]quinoline-8-carboxamide]
7 nM | 217 nM | Cc1nc2nc(N)c3cnn(C)c3c2cc1C(=O)N(C)[C@@H]1COc2cc(C(F)(F)F)ccc21 [Example 251, 4-amino-N,1,7-trimethyl-N-((3S)-6-(trifluoromethyl)-2,3-dihydro-1-benzofuran-3-yl)-1H-pyrazolo[4,3-c][1,8]-naphthyridine-8-carboxamide]
